{"source": "patent US20240383908A1", "about": "“SYNTHESIS AND APPLICATION OF PHOSPHATASE DEGRADER” (HINOVA PHARMACEUTICALS INC., priority 2021, published 2024)", "data": [{"molecular_target": "T1, SHP2 protein (Homo sapiens, UniProt Q06124)", "T1 sequence (Q06124 1-593)": "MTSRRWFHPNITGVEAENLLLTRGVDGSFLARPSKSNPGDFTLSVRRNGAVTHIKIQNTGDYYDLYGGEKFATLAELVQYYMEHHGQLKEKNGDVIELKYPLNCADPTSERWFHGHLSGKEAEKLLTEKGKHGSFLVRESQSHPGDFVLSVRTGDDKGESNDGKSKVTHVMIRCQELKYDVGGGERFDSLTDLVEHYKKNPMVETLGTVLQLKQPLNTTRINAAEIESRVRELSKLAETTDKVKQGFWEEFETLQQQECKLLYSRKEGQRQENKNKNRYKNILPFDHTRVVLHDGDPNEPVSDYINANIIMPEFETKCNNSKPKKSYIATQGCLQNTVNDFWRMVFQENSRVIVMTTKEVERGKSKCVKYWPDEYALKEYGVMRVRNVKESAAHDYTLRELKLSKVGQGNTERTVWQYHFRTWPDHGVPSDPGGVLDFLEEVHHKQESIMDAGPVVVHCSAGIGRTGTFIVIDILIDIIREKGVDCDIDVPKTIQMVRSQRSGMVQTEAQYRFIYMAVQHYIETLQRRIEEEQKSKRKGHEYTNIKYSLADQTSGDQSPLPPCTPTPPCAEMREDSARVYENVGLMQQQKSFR", "assay": "Degradation activity on SHP2 protein in MIA Paca-2 cells (Western blot, DC50)", "type": "cell-based", "set-up": "endogenous in cells; host or cells: MIA Paca-2 cells", "conditions": "read-out: Degradation activity for differenct cell lines MIA Paca-2 (DC50)", "procedure": "(1) MV-411 cells were cultured in the cell culture medium, and then well-growing cells were selected and inoculated in a 12-well plate, with 1 mL/well and 1×10^6 cells/well. The plate was incubated overnight in a 5% CO2 cell incubator at 37° C.\n(2) 10 mM storage solution of each drug was prepared using dimethylsulfoxide (DMSO). The stock solution was diluted gradually with DMSO before use, and then 1 μL of the compound solution was added to the cell culture well (to ensure that the DMSO concentration in the culture system was […]), so that the final drug concentration is 100 nM, 10 nM, 3 nM, 1 nM, 0.3 nM, and 0.1 nM. Two wells were set for each concentration. The plate was gently shaken and mixed. Additionally, negative control wells (containing an equal amount of DMSO) and positive control wells were included.\n(3) After 24 hours of cultivation, the cells were lysed using RIPA cell lysate, and the proteins were extracted. The protein concentration was measured using a BCA assay kit. 5× concentrated protein buffer was loaded, heated at 100° C. for 5 min, and then the sample was stored at −20° C.\n(4) For each well, 30 μg of protein was loaded to polyacrylamide gel for electrophoresis.\n(5) The protein was transferred from polyacrylamide gel to PVDF membrane, and sealed at room temperature with 5% skimmed milk for 1 h, which was then incubated with the primary antibodies (Anti-SHP2 rabbit mAb and Anti-GAPDH rabbit mAb) at 4° C. overnight. The membrane was washed three times with TBST solution, 10 minutes for each time. After that, the membrane was incubated with the secondary antibodies (horseradish peroxidase labeled goat anti-rabbit IgG) at room temperature for 2 h, and then washed three times with TBST solution, 10 minutes for each time, followed by exposure.\n(6) The images were analyzed with Image J grayscale, and the degradation ratio of protein bands in the test group was calculated, based on the negative control group (DMSO) (100%).\n(7) Using the Dose-response-inhibition equation in the data processing software GraphPad Prism 8, the DC50 value was obtained (which represents the drug concentration corresponding to 50% degradation of the target protein).\nUsing similar methods and different cell lines, the degradation activity of the compound according to the present invention on SHP2 protein of different cell lines was tested under suitable culture conditions.", "units": {"DC50": "nM"}, "values": [{"smiles": "CC1(N)CCN(c2cnc(Sc3cccc(NC(=O)c4ccc(N5CCC(N6CC=C(c7ccc(C(=O)NCc8ccc9c(c8)CN(C8CCC(=O)NC8=O)C9=O)nc7)CC6)CC5)cc4)c3)cn2)CC1", "note": "(stereo not drawn) [Compound 312]", "DC50": "< 100"}, {"smiles": "CC1(N)CCN(c2cnc(Sc3cccc(NC(=O)c4ccc(N5CCC(N6CC=C(c7ccc(C(=O)Nc8ccc9c(c8)CN(C8CCC(=O)NC8=O)C9=O)nc7)CC6)CC5)cc4)c3)cn2)CC1", "note": "(stereo not drawn) [Compound 313]", "DC50": "< 100"}, {"smiles": "CC1(N)CCN(c2cnc(Sc3cccc(NC(=O)c4ccc(N5CCC(N6CC=C(c7ccc(C(=O)NCc8ccc9c(c8)CN(C8CCC(=O)NC8=O)C9=O)nc7)CC6)CC5)nc4)c3)cn2)CC1", "note": "(stereo not drawn) [Compound 324]", "DC50": "< 100"}, {"smiles": "CC1(N)CCN(c2cnc(Sc3cccc(NC(=O)c4ccc(N5CCC(N6CC=C(c7ccc(C(=O)Nc8ccc9c(c8)CN(C8CCC(=O)NC8=O)C9=O)nc7)CC6)CC5)nc4)c3)cn2)CC1", "note": "(stereo not drawn) [Compound 325]", "DC50": "< 100"}, {"smiles": "CC1(N)CCN(c2cnc(Sc3cccc(NC(=O)c4ccc(N5CCC(N6CC=C(c7ccc(C(=O)NCc8ccc9c(c8)CN(C8CCC(=O)NC8=O)C9=O)nn7)CC6)CC5)nc4)c3)cn2)CC1", "note": "(stereo not drawn) [Compound 326]", "DC50": "< 100"}, {"smiles": "CC1(N)CCN(c2cnc(Sc3cccc(NC(=O)c4ccc(N5CCC(N6CC=C(c7ccc(C(=O)Nc8ccc9c(c8)CN(C8CCC(=O)NC8=O)C9=O)nn7)CC6)CC5)nc4)c3)cn2)CC1", "note": "(stereo not drawn) [Compound 327]", "DC50": "< 100"}, {"smiles": "C[C@@H]1OCC2(CCN(c3cnc(Sc4cccc(NC(=O)c5ccc(N6CCC(N7CC=C(c8ccc(C(=O)NCc9ccc%10c(c9)CN(C9CCC(=O)NC9=O)C%10=O)nn8)CC7)CC6)cc5)c4)cn3)CC2)[C@@H]1N", "note": "(stereo partly drawn) [Compound 328]", "DC50": "< 100"}, {"smiles": "CC1(N)CCN(c2cnc(Sc3cccc(NC(=O)c4ccc(N5CCC(N6CC=C(c7ccc(C(=O)NCc8ccc9c(c8)CN(C8CCC(=O)NC8=O)C9=O)nn7)CC6)CC5)c(F)c4)c3)cn2)CC1", "note": "(stereo not drawn) [Compound 329]", "DC50": "< 100"}, {"smiles": "CC1(N)CCN(c2cnc(Sc3cccc(NC(=O)c4ccc(N5CCC(N6CC=C(c7ccc(C(=O)Nc8ccc9c(c8)CN(C8CCC(=O)NC8=O)C9=O)nn7)CC6)CC5)cc4)c3)cn2)CC1", "note": "(stereo not drawn) [Compound 330]", "DC50": "< 100"}, {"smiles": "CC1(N)CCN(c2cnc(Sc3cccc(NC(=O)C(C)(C)c4ccc(N5CCN(c6ccc(C(=O)NCc7ccc8c(c7)CN(C7CCC(=O)NC7=O)C8=O)nc6)CC5)cc4)c3)cn2)CC1", "note": "(stereo not drawn) [Compound 331]", "DC50": "> 1000"}, {"smiles": "CC1(N)CCN(c2cnc(Sc3cccc(NC(=O)C4(c5ccc(N6CCN(c7ccc(C(=O)NCc8ccc9c(c8)CN(C8CCC(=O)NC8=O)C9=O)nc7)CC6)cc5)CC4)c3)cn2)CC1", "note": "(stereo not drawn) [Compound 332]", "DC50": "> 1000"}, {"smiles": "CC1(N)CCN(c2cnc(Sc3cccc(N4CCC(C(=O)N5CCN(c6ccc7c(c6)CN(C6CCC(=O)NC6=O)C7=O)CC5)CC4)c3)cn2)CC1", "note": "(stereo not drawn) [Compound 333]", "DC50": "> 1000"}, {"smiles": "CC1(N)CCN(c2cnc(Sc3cccc(NC(=O)c4ccc(N5CCC(C(=O)N6CCN(c7ccc8c(c7)CN(C7CCC(=O)NC7=O)C8=O)CC6)CC5)c(F)c4)c3)cn2)CC1", "note": "(stereo not drawn) [Compound 335]", "DC50": "> 1000"}, {"smiles": "NC1(CO)CCN(c2cnc(Sc3cccc(NC(=O)c4ccc(N5CCC(N6CC=C(c7ccc(C(=O)NCc8ccc9c(c8)CN(C8CCC(=O)NC8=O)C9=O)nc7)CC6)CC5)cc4)c3)cn2)CC1", "note": "(stereo not drawn) [Compound 336]", "DC50": "< 100"}, {"smiles": "NC1CCN(c2cnc(Sc3cccc(NC(=O)c4ccc(N5CCC(N6CC=C(c7ccc(C(=O)NCc8ccc9c(c8)CN(C8CCC(=O)NC8=O)C9=O)nc7)CC6)CC5)cc4)c3)cn2)CC1F", "note": "(stereo not drawn) [Compound 337]", "DC50": "< 100"}, {"smiles": "COc1nc(C2=CCN(C3CCN(c4ccc(C(=O)Nc5cccc(Sc6cnc(N7CCC(C)(N)CC7)cn6)c5)cc4)CC3)CC2)ccc1C(=O)NCc1ccc2c(c1)CN(C1CCC(=O)NC1=O)C2=O", "note": "(stereo not drawn) [Compound 338]", "DC50": "< 100"}, {"smiles": "CC1(N)CCN(c2cnc(Sc3cccc(NC(=O)C4CCC(N5CCC(N6CC=C(c7ccc(C(=O)NCc8ccc9c(c8)CN(C8CCC(=O)NC8=O)C9=O)nn7)CC6)CC5)CC4)c3)cn2)CC1", "note": "(stereo not drawn) [Compound 339]", "DC50": "< 100"}, {"smiles": "CC1(N)CCN(c2cnc(Sc3cccc(NC(=O)c4cnc(N5CCC(N6CC=C(c7ccc(C(=O)NCc8ccc9c(c8)CN(C8CCC(=O)NC8=O)C9=O)nc7)CC6)CC5)o4)c3)cn2)CC1", "note": "(stereo not drawn) [Compound 340]", "DC50": "> 1000"}]}]}
